# Columns and labels:
# [1] = biological target: Muscarinic acetylcholine receptor M4 (Homo sapiens) (UniProt P08173); details: Compound concentration 10.0 uM
# [2] = biological target: Substance-P receptor (Homo sapiens) (UniProt P25103); assay: Inhibition of Tachykinin NK1 at 10 µM in the Eurofins-Panlabs radioligand binding assay (Eurofins_assay_255520); set-up: ligand concentration 0.8 nM; details: Compound concentration 10.0 uM
# [3] = biological target: GABA-A receptor; anion channel (Rattus norvegicus) (UniProt O09028+P15431+P18506+P18508+P19969+P20236+P23574+P23576+P28471+P28473+P30191+P62813+P63079+P63138+Q91ZM7+Q9ES14); details: Compound concentration 10.0 uM
# [4] = biological target: Acetylcholinesterase (Homo sapiens) (UniProt P22303); details: Compound concentration 10.0 uM
# [5] = biological target: Epidermal growth factor receptor (Homo sapiens) (UniProt P00533); assay: Inhibition of Protein Tyrosine Kinase, EGF Receptor at 10 µM in the Eurofins-Panlabs enzyme assay (Eurofins_assay_170020); set-up: substrate with concentration; details: Compound concentration […]
# [6] = biological target: ATP-sensitive inward rectifier potassium channel 11 (Cricetulus griseus) (UniProt A0A3L7HHE1); assay: Inhibition of Potassium Channel [KATP] at 10 µM in the Eurofins-Panlabs radioligand binding assay (Eurofins_assay_265600); details: Cricetinae; Compound concentration 10.0 uM
# [7] = biological target: Prostaglandin G/H synthase 2 (Homo sapiens) (UniProt P35354); assay: Inhibition of Cyclooxygenase COX-2 at compound concentration of 10.0 uM in the Eurofins-Panlabs enzyme assay (Eurofins_assay_118010); set-up: substrate with concentration 0.3 uM Arachidonic acid, incubation time 15 min, incubation temperature 37 C; details: Compound concentration 10.0 uM
# [8] = organism: Rattus norvegicus; assay: Inhibition of Glutamate, NMDA, Phencyclidine at 10 µM in the Eurofins-Panlabs radioligand binding assay (Eurofins_assay_233000); format: protein-complex assay; details: Compound concentration 10.0 uM
# [9] = Inhibition of Atrial Natriuretic Factor (ANF) at 10 µM in the Eurofins-Panlabs radioligand binding assay (Eurofins_assay_211000); details: Cavia porcellus; Compound concentration 10 uM; Assay protocol publication PMID: 2408776; Detection method Radioligand Binding; Incubation temperature 4 °C; Incubation time 60 min; Ligand Bmax 0.013 pM/ mg protein; Ligand Kd 0.14 nM; Ligand [125I] ANF (rat); Ligand concentration 0.016 nM; Ligand specific binding 78 %; Non-specific ligand with concentration 0.1 µM ANF (rat); Reference compound ANF (rat); Source of …
# [10] = biological target: Sigma intracellular receptor 2 (Homo sapiens, UniProt Q5BJF2); assay: Inhibition of Sigma 2 at 10 µM in the Eurofins-Panlabs radioligand binding assay (Eurofins_assay_278200); set-up: ligand concentration 3 nM; details: Rattus norvegicus; Compound concentration 10.0 uM
# [11] = biological target: Mitogen-activated protein kinase 14 (Homo sapiens) (UniProt Q16539); assay: Inhibition of Protein Serine/Threonine Kinase, MAPK14 (p38α) at 10 µM in the Eurofins-Panlabs enzyme assay (Eurofins_assay_176610); set-up: substrate with concentration; details: Compound concentration 10.0 uM
# [12] = biological target: Type-2 angiotensin II receptor (Homo sapiens) (UniProt P50052); details: Compound concentration 10.0 uM
# [13] = biological target: T1, D(1A) dopamine receptor (Homo sapiens, UniProt P21728); details: Compound concentration 10.0 uM
# [14] = biological target: Melanocortin receptor 4 (Homo sapiens) (UniProt P32245); assay: Inhibition of Melanocortin MC4 at 10 µM in the Eurofins-Panlabs radioligand binding assay (Eurofins_assay_251350); set-up: ligand concentration 0.02 nM; details: Compound concentration 10.0 uM
# [15] = biological target: Beta-1 adrenergic receptor (Homo sapiens) (UniProt P08588); details: Compound concentration 10.0 uM
# [16] = biological target: Adenosine Transporter (Cavia porcellus) (UniProt H0V4R7+H0UUG1+H0V3Z5); assay: Inhibition of Transporter, Adenosine at compound concentration of 10.0 uM in the Eurofins-Panlabs radioligand binding assay (Eurofins_assay_202000); format: protein assay; set-up: ligand concentration 0.5 nM, non-specific ligand with concentration 5 uM Nitrobenzylthioinosine, incubation time 30 min, incubation temperature 25 C; details: Compound concentration 10.0 uM
# [17] = tested on: Bacteria; assay: Inhibition of Beta-Lactamase at 10 µM in the Eurofins-Panlabs enzyme assay (Eurofins_assay_126000); format: protein-complex assay; set-up: substrate with concentration; details: Compound concentration 10.0 uM
# [18] = biological target: Tyrosine-protein kinase Fyn (Homo sapiens) (UniProt P06241); assay: Inhibition of Protein Tyrosine Kinase, Fyn at 10 µM in the Eurofins-Panlabs enzyme assay (Eurofins_assay_172020); set-up: substrate with concentration; details: Compound concentration 10.0 uM
# [19] = organism: Rattus norvegicus; assay: Inhibition of Imidazoline I2, Central at 10 µM in the Eurofins-Panlabs radioligand binding assay (Eurofins_assay_241000); set-up: ligand concentration 2 nM; details: Compound concentration 10.0 uM
# [20] = biological target: Cysteinyl leukotriene receptor 1 (Homo sapiens) (UniProt Q9Y271); assay: Inhibition of Leukotriene, Cysteinyl CysLT1 at 10 µM in the Eurofins-Panlabs radioligand binding assay (Eurofins_assay_250460); set-up: ligand concentration 0.3 nM, non-specific ligand with concentration 0.3 µM Leukotriene D4, incubation time 30 min, incubation temperature 25 °C; details: Compound concentration 10.0 uM
# [21] = biological target: Receptor-type tyrosine-protein phosphatase C (Homo sapiens) (UniProt P08575); assay: Inhibition of Protein Tyrosine Phosphatase, PTPRC (CD45) at 10 µM in the Eurofins-Panlabs enzyme assay (Eurofins_assay_190010); details: Compound concentration 10.0 uM
# [22] = biological target: Cannabinoid receptor 1 (Homo sapiens, UniProt P21554)
# [23] = biological target: Monoamine oxidase A (MAO-A) (Homo sapiens, UniProt P21397); assay: Inhibition of Monoamine Oxidase MAO-A at compound concentration of 10.0 uM in the Eurofins-Panlabs enzyme assay (Eurofins_assay_140010); set-up: substrate with concentration 50 uM Kynuramine, incubation time 60 min, incubation temperature 37 C; details: recombinant human MAO-A expressed in insect Hi5 cells, probe Kynuramine, 50 uM, compound concentration 10 uM
# [24] = biological target: Protein phosphatase 3 catalytic subunit alpha (Homo sapiens) (UniProt Q08209); assay: Inhibition of Protein Serine/threonine Phosphatase, PPP3CA (Calcineurin, PP2B) […] in the Eurofins-Panlabs enzyme assay (Eurofins_assay_188020); set-up: substrate with concentration; details: Compound concentration 10.0 uM
# [25] = biological target: 3-hydroxy-3-methylglutaryl-coenzyme A reductase (Homo sapiens) (UniProt P04035); assay: Inhibition of HMG-CoA Reductase at compound concentration of 10.0 uM in the Eurofins-Panlabs enzyme assay (Eurofins_assay_124010); set-up: substrate with concentration; details: Compound concentration 10.0 uM
# [26] = biological target: Muscarinic acetylcholine receptor M3 (Homo sapiens) (UniProt P20309); details: Compound concentration 10.0 uM
# [27] = biological target: T1, D(1A) dopamine receptor; assay: GPCRScan assay: inhibition of D1; set-up: radioligand conc. used [nm] 0.6 – 1.3, parental cells HEKT
# Sequence of Cannabinoid receptor 1 (P21554 whole entry): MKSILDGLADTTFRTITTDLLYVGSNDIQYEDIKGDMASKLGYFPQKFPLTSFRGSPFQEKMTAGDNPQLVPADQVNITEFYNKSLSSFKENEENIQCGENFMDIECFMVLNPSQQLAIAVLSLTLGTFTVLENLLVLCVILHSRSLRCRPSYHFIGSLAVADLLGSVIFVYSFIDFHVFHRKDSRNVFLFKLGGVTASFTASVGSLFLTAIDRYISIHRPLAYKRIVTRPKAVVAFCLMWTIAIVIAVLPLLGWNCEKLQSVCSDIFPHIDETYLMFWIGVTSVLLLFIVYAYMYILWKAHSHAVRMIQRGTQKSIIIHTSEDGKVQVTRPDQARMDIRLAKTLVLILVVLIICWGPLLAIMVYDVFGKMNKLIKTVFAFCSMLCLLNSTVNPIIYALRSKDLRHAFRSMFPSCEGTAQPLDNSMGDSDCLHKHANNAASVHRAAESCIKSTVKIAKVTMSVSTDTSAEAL
# T1 sequence (P21728 whole entry): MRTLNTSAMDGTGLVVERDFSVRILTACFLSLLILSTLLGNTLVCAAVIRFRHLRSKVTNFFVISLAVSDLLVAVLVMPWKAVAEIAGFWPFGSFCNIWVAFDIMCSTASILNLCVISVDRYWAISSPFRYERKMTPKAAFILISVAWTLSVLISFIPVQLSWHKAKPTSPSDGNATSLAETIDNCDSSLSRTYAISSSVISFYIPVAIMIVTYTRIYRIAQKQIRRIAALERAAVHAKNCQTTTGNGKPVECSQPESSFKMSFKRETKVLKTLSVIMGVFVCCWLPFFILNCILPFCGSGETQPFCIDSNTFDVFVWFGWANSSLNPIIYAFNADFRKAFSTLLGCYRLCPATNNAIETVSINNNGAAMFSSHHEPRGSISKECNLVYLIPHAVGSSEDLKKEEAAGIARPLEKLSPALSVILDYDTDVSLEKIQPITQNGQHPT
# Sequence of Beta-1 adrenergic receptor (Homo sapiens) (P08588 whole entry, looked up): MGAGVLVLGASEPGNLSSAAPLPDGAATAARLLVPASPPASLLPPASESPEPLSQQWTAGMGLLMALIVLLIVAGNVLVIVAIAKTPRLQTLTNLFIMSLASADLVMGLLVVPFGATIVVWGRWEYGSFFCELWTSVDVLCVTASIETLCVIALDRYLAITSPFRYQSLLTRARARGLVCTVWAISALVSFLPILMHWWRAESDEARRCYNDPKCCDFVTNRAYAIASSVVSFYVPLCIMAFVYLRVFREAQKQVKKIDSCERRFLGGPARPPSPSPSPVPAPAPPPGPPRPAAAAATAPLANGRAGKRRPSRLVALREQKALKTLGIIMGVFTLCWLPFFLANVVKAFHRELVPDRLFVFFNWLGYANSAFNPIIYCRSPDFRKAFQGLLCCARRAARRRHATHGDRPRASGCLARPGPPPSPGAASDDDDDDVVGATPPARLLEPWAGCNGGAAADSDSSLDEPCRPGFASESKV
# Sequence of Melanocortin receptor 4 (Homo sapiens) (P32245 whole entry): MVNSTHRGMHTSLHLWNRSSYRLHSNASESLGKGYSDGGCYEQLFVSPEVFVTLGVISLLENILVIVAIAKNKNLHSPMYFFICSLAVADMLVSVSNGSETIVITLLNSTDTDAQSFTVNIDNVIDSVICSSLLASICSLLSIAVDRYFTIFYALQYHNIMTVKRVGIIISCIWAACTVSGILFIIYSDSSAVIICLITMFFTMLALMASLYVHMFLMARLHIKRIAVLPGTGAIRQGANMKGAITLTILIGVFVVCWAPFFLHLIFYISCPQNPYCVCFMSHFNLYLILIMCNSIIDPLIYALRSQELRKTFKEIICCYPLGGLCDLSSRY
# Sequence of Substance-P receptor (Homo sapiens) (P25103 whole entry): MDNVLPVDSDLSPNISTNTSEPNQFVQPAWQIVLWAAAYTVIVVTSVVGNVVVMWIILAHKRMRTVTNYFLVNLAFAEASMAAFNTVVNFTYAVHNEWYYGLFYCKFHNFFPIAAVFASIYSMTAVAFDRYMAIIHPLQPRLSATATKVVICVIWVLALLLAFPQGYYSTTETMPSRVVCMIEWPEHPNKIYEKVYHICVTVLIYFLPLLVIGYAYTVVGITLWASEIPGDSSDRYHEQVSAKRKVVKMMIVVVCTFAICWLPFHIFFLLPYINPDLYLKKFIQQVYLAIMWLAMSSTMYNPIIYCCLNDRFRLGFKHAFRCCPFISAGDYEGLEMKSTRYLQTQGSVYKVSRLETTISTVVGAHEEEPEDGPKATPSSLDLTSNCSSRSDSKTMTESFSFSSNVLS
# Sequence of Type-2 angiotensin II receptor (Homo sapiens) (P50052 whole entry): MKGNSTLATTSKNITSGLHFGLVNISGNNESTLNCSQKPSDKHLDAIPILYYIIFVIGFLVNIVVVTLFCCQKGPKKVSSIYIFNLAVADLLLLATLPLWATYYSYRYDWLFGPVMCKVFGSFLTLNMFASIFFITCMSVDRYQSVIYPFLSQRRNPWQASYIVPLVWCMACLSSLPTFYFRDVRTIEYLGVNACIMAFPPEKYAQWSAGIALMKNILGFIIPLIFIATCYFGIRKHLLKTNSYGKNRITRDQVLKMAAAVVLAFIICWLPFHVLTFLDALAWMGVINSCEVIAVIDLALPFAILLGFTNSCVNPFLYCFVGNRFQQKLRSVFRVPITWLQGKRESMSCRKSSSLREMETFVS
# Sequence of Acetylcholinesterase (Homo sapiens) (P22303 whole entry): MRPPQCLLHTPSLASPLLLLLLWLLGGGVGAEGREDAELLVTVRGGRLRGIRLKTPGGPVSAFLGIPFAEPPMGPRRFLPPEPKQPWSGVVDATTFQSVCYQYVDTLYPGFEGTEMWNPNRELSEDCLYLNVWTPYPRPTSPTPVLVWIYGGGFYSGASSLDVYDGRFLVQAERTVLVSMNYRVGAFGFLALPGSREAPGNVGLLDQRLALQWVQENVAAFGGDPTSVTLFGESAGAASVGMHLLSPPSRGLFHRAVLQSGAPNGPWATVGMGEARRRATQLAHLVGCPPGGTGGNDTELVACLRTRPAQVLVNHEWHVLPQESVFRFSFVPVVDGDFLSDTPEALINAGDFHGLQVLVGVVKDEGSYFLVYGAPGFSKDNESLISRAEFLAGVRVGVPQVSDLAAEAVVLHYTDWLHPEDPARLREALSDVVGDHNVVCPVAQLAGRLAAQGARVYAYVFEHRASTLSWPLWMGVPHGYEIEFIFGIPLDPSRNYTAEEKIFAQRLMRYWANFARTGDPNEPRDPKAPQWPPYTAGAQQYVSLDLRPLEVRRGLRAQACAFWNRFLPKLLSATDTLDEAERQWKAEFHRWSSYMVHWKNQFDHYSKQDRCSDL
# Sequence of Muscarinic acetylcholine receptor M3 (Homo sapiens) (P20309 whole entry, looked up): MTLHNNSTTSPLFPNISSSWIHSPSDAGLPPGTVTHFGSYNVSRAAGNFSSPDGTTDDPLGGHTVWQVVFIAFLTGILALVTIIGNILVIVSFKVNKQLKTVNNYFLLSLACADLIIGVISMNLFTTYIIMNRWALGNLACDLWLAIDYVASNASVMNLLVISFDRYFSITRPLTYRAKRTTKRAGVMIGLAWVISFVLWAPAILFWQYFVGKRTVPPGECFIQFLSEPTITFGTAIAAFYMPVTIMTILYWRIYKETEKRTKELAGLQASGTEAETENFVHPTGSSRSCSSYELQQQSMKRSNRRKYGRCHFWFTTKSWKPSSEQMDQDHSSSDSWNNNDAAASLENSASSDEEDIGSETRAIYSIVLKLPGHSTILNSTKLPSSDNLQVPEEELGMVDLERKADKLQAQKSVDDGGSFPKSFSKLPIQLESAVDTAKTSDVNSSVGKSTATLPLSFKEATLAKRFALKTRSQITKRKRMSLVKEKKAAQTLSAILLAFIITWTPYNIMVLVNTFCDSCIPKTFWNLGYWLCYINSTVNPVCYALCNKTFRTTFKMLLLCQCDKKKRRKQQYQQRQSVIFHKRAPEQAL
# Sequence of Prostaglandin G/H synthase 2 (Homo sapiens) (P35354 whole entry): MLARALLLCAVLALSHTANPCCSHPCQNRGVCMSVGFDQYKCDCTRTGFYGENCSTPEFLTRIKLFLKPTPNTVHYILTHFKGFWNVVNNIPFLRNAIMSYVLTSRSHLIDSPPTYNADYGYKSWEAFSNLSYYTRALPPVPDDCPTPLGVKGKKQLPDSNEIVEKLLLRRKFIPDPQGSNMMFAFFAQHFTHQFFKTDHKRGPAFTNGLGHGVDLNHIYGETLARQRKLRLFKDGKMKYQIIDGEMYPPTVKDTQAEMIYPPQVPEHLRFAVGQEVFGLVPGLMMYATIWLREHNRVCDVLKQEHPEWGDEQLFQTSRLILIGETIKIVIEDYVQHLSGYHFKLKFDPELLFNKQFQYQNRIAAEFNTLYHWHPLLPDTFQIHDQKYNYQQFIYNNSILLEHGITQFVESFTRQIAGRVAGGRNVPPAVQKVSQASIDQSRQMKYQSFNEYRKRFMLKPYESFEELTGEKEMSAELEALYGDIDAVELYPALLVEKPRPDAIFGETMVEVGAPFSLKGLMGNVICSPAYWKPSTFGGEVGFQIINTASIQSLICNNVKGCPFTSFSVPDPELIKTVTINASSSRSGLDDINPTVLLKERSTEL
# Sequence of Monoamine oxidase A (MAO-A) (P21397 whole entry): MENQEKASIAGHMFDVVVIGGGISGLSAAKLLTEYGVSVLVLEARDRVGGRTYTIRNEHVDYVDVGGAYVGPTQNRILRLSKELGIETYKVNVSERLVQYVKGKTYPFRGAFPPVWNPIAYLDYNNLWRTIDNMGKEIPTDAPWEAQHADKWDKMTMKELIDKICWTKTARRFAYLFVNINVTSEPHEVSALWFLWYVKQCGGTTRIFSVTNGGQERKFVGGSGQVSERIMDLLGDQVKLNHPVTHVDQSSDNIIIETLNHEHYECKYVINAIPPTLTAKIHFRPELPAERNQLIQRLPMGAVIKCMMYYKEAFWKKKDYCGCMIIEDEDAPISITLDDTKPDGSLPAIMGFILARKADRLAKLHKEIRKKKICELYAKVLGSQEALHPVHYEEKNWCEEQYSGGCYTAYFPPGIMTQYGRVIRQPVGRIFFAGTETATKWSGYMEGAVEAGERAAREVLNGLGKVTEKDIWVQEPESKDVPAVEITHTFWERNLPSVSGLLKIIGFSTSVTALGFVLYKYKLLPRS
structure (smiles),measurement,setting,value
O=C(NCc1ncc(C(F)(F)F)cc1Cl)c1ccc2c(c1)C1(CCS(=O)(=O)CC1)[C@H](C1CC1)N2S(=O)(=O)c1ccc(F)cc1 [BAY-784],inhibition,[1],2%
same,inhibition,[2],26%
same,inhibition,[3],-1%
same,inhibition,[4],56%
same,inhibition,[5],-8%
same,inhibition,[6],0%
same,inhibition,[7],4%
same,inhibition,[8],-4%
same,inhibition at 10 µM,[9],2% (not active)
same,inhibition,[10],20%
same,inhibition,[11],50%
same,inhibition,[12],-5%
same,inhibition,[13],6%
same,inhibition,[14],12%
same,inhibition,[15],7%
same,inhibition,[16],25%
same,inhibition,[17],4%
same,inhibition,[18],5%
same,inhibition,[19],10%
same,inhibition,[20],4%
same,inhibition,[21],-5%
same,inhibition,[22]; Compound concentration 3.0 uM,52%
same,inhibition,[22]; Compound concentration 10.0 uM,73%
same,"inhibition at 60 min, 10 µM",[23],3% (not active)
same,inhibition,[24],16%
same,inhibition,[25],12%
same,inhibition,[26],1%
O=C(NCc1ncc(C(F)(F)F)cc1Cl)c1ccc2c(c1)C1(CCS(=O)(=O)CC1)[C@@H](C1CC1)N2S(=O)(=O)c1ccc(F)cc1 [BAY-786],Ki,[27],10 µM

# — ChEMBL document CHEMBL4507266, “Data for DCP probe BAY-784” (2021)
